Measured values published in patent US9192621B2, “Esters and malonates of SATE prodrugs” (IDENIX PHARMACEUTICALS LLC, priority 2012, dated 2015).

Experiments:
HCV genotype 1b replicon = test: HCV replicon assay (luciferase reporter, Zluc cells); type: cell-based; details: Huh-7-derived Zluc cells, 72 hours of incubation
[1] = Cytotoxicity evaluation, CellTiter-Blue Cell Viability Assay; type: cell-based; details: human, Zluc cells (HCV replicon cells)
Zluc cells = test: as above; type: cell-based; details: read-out: HCV Replicon CC50
[2] = Stability in simulated gastric and intestinal fluids; type: in vitro ADME; details: 100 μM, 2 hours at 37° C., percent of the peak area observed at time zero
Method: Stability in simulated gastric and intestinal fluids: Simulated gastric and intestinal fluids containing pepsin and pancreatin respectively were prepared according to the U.S. Pharmacopoeia USP291 procedure (www.pharmacopeia.cn/v29240/usp29nf24s0_ris1s126.html). Test compound (final concentration 100 μM) was incubated in duplicate in the appropriate fluid for 2 hours at 37° C. The samples were quenched with 200 μl cold acetonitrile, vortexed for 30 seconds and then centrifuged at 16,100 g for 10 min. The supernatants were analyzed by HPLC on a C-18 column with UV detection at 252 nm. The time 0 samples were prepared by adding SGF or SIF fluid to the quenching solvent followed by the test compound. Stability of the compound was determined by peak area for the test compound after incubation and calculated as percent of the peak area observed at time zero.

Row | Compound | EC50 (HCV genotype 1b replicon; Hepatitis C virus) [nM] | CC50 at 72 h [1] [µM] | further results
1 | CCOc1nc(N)nc2c1ncn2[C@@H]1O[C@H](COP(=O)(NCc2ccccc2)OCCSC(=O)C(C)(C)COC(C)=O)[C@@H](O)[C@@]1(C)F (single isomer, unassigned) [Compound 101 Diastereomer 1] | ≤ 250 | ≤ 50 | 
2 | CCCCCC(=O)OCC(C)(C)C(=O)SCCOP(=O)(NCc1ccccc1)OCC1O[C@@H](n2cnc3c(=O)[nH]c(N)nc32)[C@](C)(O)[C@@H]1O (stereo partly drawn) [Compound 108] | ≤ 250 | ≤ 50 | 
3 | CC(=O)OCC(C)(C)C(=O)SCCOP(=O)(NCc1ccccc1)OCC1O[C@@H](n2cnc3c(=O)[nH]c(N)nc32)[C@](C)(O)[C@@H]1O (stereo partly drawn) [Compound 106] | ≤ 250 | ≤ 50 | 
4 | CCCCCC(=O)OCC(C)(C)C(=O)SCCOP(=O)(NCc1ccccc1)OC[C@H]1O[C@@H](n2cnc3c(OCC)nc(N)nc32)[C@](C)(F)[C@@H]1O (single isomer, unassigned) [Compound 103 Diastereomer 2] |  |  | CC50 (Zluc cells): > 50 µM
5 | CCOc1nc(N)nc2c1ncn2[C@@H]1OC(COP(=O)(NCc2ccccc2)OCCSC(=O)C(C)(C)COC(=O)C(C)C)[C@@H](O)[C@@]1(C)F (stereo partly drawn) [Compound 104] | ≤ 250 | ≤ 50 | 
6 | CCOc1nc(N)nc2c1ncn2[C@@H]1O[C@H](COP(=O)(NCc2ccccc2)OCCSC(=O)C(C)(C)COC(C)=O)[C@@H](O)[C@@]1(C)F (single isomer, unassigned) [Compound 101 Diastereomer 2] |  |  | EC50 (HCV genotype 1b replicon): ≤ 250 nM
7 | CCCC(=O)OCC(C)(C)C(=O)SCCOP(=O)(NCc1ccccc1)OC[C@H]1O[C@@H](n2cnc3c(OCC)nc(N)nc32)[C@](C)(F)[C@@H]1O (stereo partly drawn) [Compound 102] | ≤ 250 | ≤ 50 | 
8 | CCCCCC(=O)OCC(C)(C)C(=O)SCCOP(=O)(NCc1ccccc1)OC[C@H]1O[C@@H](n2cnc3c(OCC)nc(N)nc32)[C@](C)(F)[C@@H]1O (single isomer, unassigned) [Compound 103 Diastereomer 1] | ≤ 250 | > 50 | 
9 | CCOc1nc(N)nc2c1ncn2[C@@H]1O[C@H](COP(=O)(NCc2ccccc2)OCCSC(=O)C(C)(C)C(=O)OC(C)C)[C@@H](O)[C@@]1(C)F (stereo partly drawn) [Compound 105] | ≤ 250 | > 50 | 
10 | CCCC(=O)OCC(C)(C)C(=O)SCCOP(=O)(NCc1ccccc1)OCC1O[C@@H](n2cnc3c(=O)[nH]c(N)nc32)[C@](C)(O)[C@@H]1O (stereo partly drawn) [Compound 107] | ≤ 250 | ≤ 50 | Stability SGF ([2]; simulated gastric fluid containing pepsin): +++ (50<+++<100); Stability SIF ([2]; simulated intestinal fluid containing pancreatin): + (+≦25)
11 | CCCCCC(=O)OCC(C)(C)C(=O)SCCOP(=O)(NCc1ccccc1)OC[C@H]1O[C@@H](n2cnc3c(OCC)nc(N)nc32)[C@](C)(F)[C@@H]1O (stereo partly drawn) [Compound 103] | ≤ 250 | > 50 | 
12 | CCOc1nc(N)nc2c1ncn2[C@@H]1O[C@H](COP(=O)(NCc2ccccc2)OCCSC(=O)C(C)(C)C(=O)OC(C)C)[C@@H](O)[C@@]1(C)F (single isomer, unassigned) [Compound 105 Diastereomer 1] | ≤ 250 | > 50 | 
13 | CCOc1nc(N)nc2c1ncn2[C@@H]1O[C@H](COP(=O)(NCc2ccccc2)OCCSC(=O)C(C)(C)C(=O)OC(C)C)[C@@H](O)[C@@]1(C)F (single isomer, unassigned) [Compound 105 Diastereomer 2] |  |  | CC50 (Zluc cells): > 50 µM
14 | CCOc1nc(N)nc2c1ncn2[C@@H]1O[C@H](COP(=O)(NCc2ccccc2)OCCSC(=O)C(C)(C)COC(C)=O)[C@@H](O)[C@@]1(C)F (stereo partly drawn) [Compound 101] | ≤ 250 | ≤ 50 | 
